Read-outs that look alike come from different tables or passages of the source. Blank lines part the entries; values can stand above or below the compound they belong to.
Assays:
[1] = molecular target: T1, PARP1 (Homo sapiens, UniProt P09874); assay: PARP1 autopoly(ADP-ribosyl)ation (autoPARylation) enzyme assay with [32P]NAD+; assay type: biochemical; conditions: for IC50: 0.3 mM [32P]NAD+, means ±SDs of three independent experiments, read-out: IC50, PARP1 activity in the autoPARylation reaction
T1 construct: made in house; host or cells: insect cells
Procedure: (§1) Human recombinant poly(ADP-ribose) polymerase 1 (PARP1) and murine poly(ADP-ribose) polymerase 2 (PARP2) were expressed in insect cells and purified as previously described. Radioactively labeled [^32P]NAD^+ was synthesized from [α-^32P]ATP, according to the previously developed method. The reaction of autopoly(ADP-ribosyl)ation was performed as follows. For PARP1, the reaction mixture contained 50 mM of Tris-HCl, a pH of 8.0, 10 mM of MgCl2, 150 mM of NaCl, 7 mM of β-mercaptoethanol, 2 A260/mL of activated DNA, 0.3 mM of [^32P]NAD^+, and 1 of the tested compounds. The reaction was initiated by adding PARP1 up to 200 nM, and the reaction mixtures were incubated at 37 °C for 2 min. For PARP2, the reaction mixture contained 50 mM of Tris-HCl, a pH of 8.0, 3 mM of spermine, 150 mM of NaCl, 7 mM of β-mercaptoethanol, 2 A260/mL of activated DNA, 0.6 mM of [^32P]NAD^+, and 1 of the tested compounds. The reaction was initiated by adding PARP2 up to 800 nM, and the reaction mixtures were incubated at 37 °C for 5 min. The tested compounds were added at six fixed concentrations, specified for each of them. The reaction was stopped by dropping 10 µL aliquots onto Whatman 1 filter papers soaked in 5% trichloroacetic acid (TCA). The filters were washed 4 times with 150 mL of 5% TCA and dried in the air after the removal of TCA with 90% ethanol. The introduction of radioactivity into the reaction product was quantified using a Typhoon FLA 9500 imager (GE Healthcare, Chicago, IL, USA). The half-maximal inhibitory concentration (IC50) values were determined using a six-point concentration response curve in three independent experiments.

[2] = molecular target: T2, PARP2 (Mus musculus, UniProt O88554); assay: PARP2 autopoly(ADP-ribosyl)ation (autoPARylation) enzyme assay with [32P]NAD+; assay type: biochemical, murine; conditions: for remaining activity at 1000 µM: 5 min, 1 mM compound, autoPARylation reaction, read-out: Residual catalytic activity of PARP2 in the presence of a 1 mM compound; for IC50: 0.6 mM [32P]NAD+, means ±SDs of three independent experiments, read-out: IC50, PARP2 activity in the autoPARylation reaction
T2 construct: made in house; host or cells: insect cells
Procedure: as §1

[3] = system: PARP1; conditions: cited from earlier work
[4] = system: PARP2; conditions: cited from earlier work
[5] = system: HeLa cell line (cervical cancer); assay: Cell culture cytotoxicity assay (EZ4U/MTT), compounds alone and combined with hydrogen peroxide; conditions: for Effect (H2O2 + PARP inhibitor combo): Hela
Procedure: The cytotoxicity of the compounds and their combinations with a DNA damaging agent were examined against human cells from the HeLa cell line (cervical cancer) using an EZ4U/MTT colorimetric test (Biomedica, Vienna, Austria). […] The cells were grown in 96-well plates in DMEM medium (Gibco, Thermo Fisher Scientific, Waltham, MA, USA), with 1x GlutaMAX (Gibco, Thermo Fisher Scientific, Waltham, MA, USA), 50 IU/mL penicillin, 50 μg/mL streptomycin (MP Biome-dicals, Santa Ana, CA, USA), and in the presence of 10% fetal bovine serum (Biolot, Saint Petersburg, Russia) in a 5% CO2 atmosphere. After the formation of a 30–50% monolayer, the tested compounds were added to the medium to final concentrations specified in Figure 2 and Figure S4, and the cell culture was monitored for 3 days. […] The combination index (CI) values were calculated using CompuSyn software version 1.0.

[6] = molecular target: T1, PARP1; assay: Steady-state kinetic analysis of the PARP1 enzymatic reaction; assay type: biochemical; conditions: for Type of inhibition: Vmax decreased, KM increased
Procedure: The four efficient inhibitors of PARP1 (compounds 8, 12, 13, and 14) were further examined by detailed kinetic experiments to determine the type of inhibition and the inhibition constants. […] The kinetics experiments of the PARylation reaction were performed at varied concentrations of the NAD^+ substrate and three–four different fixed concentrations of the inhibitor. The kinetic parameters of the reaction (Vmax and KM) were calculated by fitting the Michaelis–Menten equation to the kinetic data. The type of inhibition was determined by analyzing the dependences of Vmax and KM on the concentration of the inhibitor in linearizing coordinates (Figure S3). All the compounds had decreased Vmax and increased KM values as the inhibitor concentration increased (panels A−E), indicating a mixed type of inhibition, which was further evidenced by the double reciprocal plots of kinetic data (panel F). From these experiments, the inhibition constants reflecting the affinity of inhibitors to the NAD^+ binding pocket of free enzymes were determined (Table 2).
To determine the apparent maximum rate of enzymatic reaction (Vmax), Michaelis constant (KM), and possible inhibition mechanism, steady-state kinetic experiments were performed at […] fixed concentrations of the substrate, in the absence and presence of different fixed concentrations of the inhibitor. The standard reaction mixtures (10 μL) contained 100 μM, 300 μM, 500 μM, 1 mM, or 2 mM NAD^+; a tested PARP1/PARP2 inhibitor specified for each compound (Figure S3); the recombinant human enzyme PARP1 (200 nM) or murine PARP2 (800 nM); and reaction buffer components (specified in the previous subsection). The reaction was performed as described in the previous subsection. The raw data (kinetic curves) were obtained in three independent experiments and statistically processed with OriginPro 8.6.0 software. […]
F) Graphical representation in double reciprocal plots. The inhibitor concentrations (µM) are indicated right to each panel.
Figure S3. Graphical representation of inhibition type determination for PARP1 and PARP2 with selected compounds.
The Ki and Ki(2) values presented in Table 2 in the main text and Table S1 were calculated using the equations:
Ki = Ci⁄ Ki (2) = CiV Vmax ∗ൗ−1
ቂ(Vmax Km )൘ቃ(Vmax ∗ Km ∗)⁄ −1 where Vmax (Vmax*) – maximal reaction velocity in th e absence (presence) of inhibitor; Km (Km*) – Michaelis constant in the absence (presence) of inhibitor; Ci – the inhibitor concentration.
(also on this page, place not known: Ci )⁄ (Vmax ∗ )⁄൘ቃ − Ki(2) Ci V ∗ൗ− 1 the Vmax KM 3000 0 1 0 250 [ 32 P]ADP-ribose, counts x 10 -3 NAD + ,)
(1 picture or pasted object on this page, not shown here)

[7] = molecular target: T3, PARP2 (supplemented with HPF1 or not) (Mus musculus, UniProt O88554); assay: PARP2 inhibition in the absence and presence of HPF1 (automodification, SDS-PAGE); assay type: biochemical, murine; conditions: 500 nM PARP2, 1 µM HPF1
T3 construct: made in house; host or cells: insect cells (PARP2)
Procedure: PARP1/PARP2 autopoly(ADP-ribosyl)ation was performed in a standard 20 μL reaction mixture containing 50 mM of Tris-HCl, a pH of 8.0, 100 mM of NaCl, 10 mM of MgCl2, 1 mM of DTT, 10 µM of [^32P]NAD^+, 1 µM of gap-DNA (a 32-mer duplex with a medially located 1-nucleotide gap), 500 nM of PARP1/PARP2 (supplemented with 1 µM of HPF1 or not), and an inhibitor of interest at concentrations specified in Figure 4 and Figure S7. The reaction was initiated by adding a mixture of [^32P]NAD^+ and DNA to a protein-inhibitor mixture pre-assembled on ice. After incubating the mixtures at 37 °C for the indicated time periods, the reactions were terminated by the addition of an SDS-PAGE sample buffer and heating for 2 min at 90 °C. The reaction products were analyzed using 10% SDS-PAGE with the subsequent phosphor imaging of a Coomassie brilliant blue stained gel. Protein bands labeled with [^32P]ADP-ribose were quantified using Quantity One 4.6.7 Basic software. The residual activity (%) was determined as the level of PARP automodification in the presence of an inhibitor normalized to the respective level in the control sample containing no inhibitor.

[8] = system: PARP1; assay: fluorescence anisotropy; conditions: 400 nM olaparib; 50 mM NaCl, 50 mM Tris-HCl pH 8.0, 4 mM DTT; 25 nM FAM-DNA, 20-200 nM PARP1 or 20-800 nM PARP2; mixed on ice, 10 min at room temperature
[9] = system: PARP2; assay: fluorescence anisotropy; conditions: 800 nM olaparib; 50 mM NaCl, 50 mM Tris-HCl pH 8.0, 4 mM DTT; 25 nM FAM-DNA, 20-200 nM PARP1 or 20-800 nM PARP2; mixed on ice, 10 min at room temperature
[10] = mixed-type inhibition, read-out: Ki (affinity for the free enzyme)
[11] = read-out: Ki(2) (affinity for the enzyme complex with NAD+ substrate)

T1 sequence (P09874 whole entry): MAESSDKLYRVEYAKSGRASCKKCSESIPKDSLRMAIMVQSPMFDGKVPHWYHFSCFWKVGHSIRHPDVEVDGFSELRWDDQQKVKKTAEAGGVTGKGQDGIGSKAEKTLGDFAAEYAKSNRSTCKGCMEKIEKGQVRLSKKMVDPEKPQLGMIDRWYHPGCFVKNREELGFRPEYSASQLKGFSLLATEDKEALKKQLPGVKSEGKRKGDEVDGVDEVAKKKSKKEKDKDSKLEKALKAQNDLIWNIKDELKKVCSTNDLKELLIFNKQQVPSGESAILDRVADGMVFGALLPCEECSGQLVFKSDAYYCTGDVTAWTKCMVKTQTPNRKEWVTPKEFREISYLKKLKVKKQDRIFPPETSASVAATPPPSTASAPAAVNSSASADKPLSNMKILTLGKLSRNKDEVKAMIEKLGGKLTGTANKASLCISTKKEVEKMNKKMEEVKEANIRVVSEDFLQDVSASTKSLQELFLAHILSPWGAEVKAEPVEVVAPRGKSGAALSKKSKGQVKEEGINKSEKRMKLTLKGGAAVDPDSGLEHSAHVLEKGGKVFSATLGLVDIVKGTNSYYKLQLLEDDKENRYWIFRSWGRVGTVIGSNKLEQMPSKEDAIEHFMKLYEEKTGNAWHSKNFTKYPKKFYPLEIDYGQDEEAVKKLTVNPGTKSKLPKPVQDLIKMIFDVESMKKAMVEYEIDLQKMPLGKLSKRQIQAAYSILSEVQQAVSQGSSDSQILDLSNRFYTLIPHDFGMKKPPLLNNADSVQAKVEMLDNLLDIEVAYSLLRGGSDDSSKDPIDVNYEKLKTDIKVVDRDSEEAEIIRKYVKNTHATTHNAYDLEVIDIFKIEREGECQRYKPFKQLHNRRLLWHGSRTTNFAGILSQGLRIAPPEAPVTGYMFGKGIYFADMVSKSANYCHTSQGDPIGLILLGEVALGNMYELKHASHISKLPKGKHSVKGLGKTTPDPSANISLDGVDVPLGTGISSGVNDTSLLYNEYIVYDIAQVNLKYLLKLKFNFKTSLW
T2 sequence (O88554 whole entry): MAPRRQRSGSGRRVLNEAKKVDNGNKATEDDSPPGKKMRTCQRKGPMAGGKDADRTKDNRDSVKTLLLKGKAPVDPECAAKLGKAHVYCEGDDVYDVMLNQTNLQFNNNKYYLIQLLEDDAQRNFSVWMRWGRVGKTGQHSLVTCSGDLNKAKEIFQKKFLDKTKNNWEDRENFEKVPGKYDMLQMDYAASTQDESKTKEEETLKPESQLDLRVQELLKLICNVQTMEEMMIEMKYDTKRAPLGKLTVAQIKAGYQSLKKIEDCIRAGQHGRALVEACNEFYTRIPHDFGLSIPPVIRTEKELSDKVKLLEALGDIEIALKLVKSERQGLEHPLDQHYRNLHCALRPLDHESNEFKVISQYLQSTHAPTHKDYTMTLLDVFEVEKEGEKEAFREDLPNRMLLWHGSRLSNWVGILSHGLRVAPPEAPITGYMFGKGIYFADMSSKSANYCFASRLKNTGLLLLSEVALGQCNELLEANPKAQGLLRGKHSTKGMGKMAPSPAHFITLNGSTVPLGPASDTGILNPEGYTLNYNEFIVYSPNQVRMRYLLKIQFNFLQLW
T3 sequence (O88554 whole entry): as above

Residual catalytic activity of PARP1 in the presence of a 1 mM compound ([1]; autoPARylation reaction): >30%
remaining activity at 1000 µM [2]: > 30%
Compound: NC[C@@H]1CN(CC(=O)O)C[C@H](n2cnc3c(N)ncnc32)O1 [Compound 1]

IC50 [1]: 60 ± 14 µM
IC50 [2]: 100 ± 12 µM
Compound: Cc1cn([C@H]2CN(CC(=O)O)C[C@@H](CN)O2)c(=O)[nH]c1=O [Compound 2]

Residual catalytic activity of PARP1 in the presence of a 1 mM compound ([1]; autoPARylation reaction): >30%
remaining activity at 1000 µM [2]: > 30%
Compound: NC[C@@H]1CN(CC(=O)O)C[C@H](n2cnc3c(=O)[nH]c(N)nc32)O1 [Compound 3]

Residual catalytic activity of PARP1 in the presence of a 1 mM compound ([1]; autoPARylation reaction): >30%
remaining activity at 1000 µM [2]: > 30%
Compound: NC[C@@H]1CN(CC(=O)O)C[C@H](n2ccc(N)nc2=O)O1 [Compound 4]

Compound: O=c1[nH]c(=O)n([C@@H]2O[C@H](CO)[C@@H](O)[C@H]2O)cc1I [Compound 5-I-Urd]
IC50 [3]: 49 µM
IC50 [4]: 27 µM

Residual catalytic activity of PARP1 in the presence of a 1 mM compound ([1]; autoPARylation reaction): >30%
remaining activity at 1000 µM [2]: > 30%
Compound: NC[C@@H]1CN(CC(=O)O)C[C@H](n2ccc(=O)[nH]c2=O)O1 [Compound 5]

IC50 [1]: 70 ± 12 µM
IC50 [2]: 142 ± 6 µM
Compound: NC[C@@H]1CN(CC(=O)O)C[C@H](n2cc(I)c(=O)[nH]c2=O)O1 [Compound 6, 2′-aminomethylmorpholino glycine 5-I-uracyl nucleoside]

Compound: NC[C@@H]1CNC[C@H](n2cnc3c(N)ncnc32)O1 [Compound 7]
Residual catalytic activity of PARP1 in the presence of a 1 mM compound ([1]; autoPARylation reaction): >30%
remaining activity at 1000 µM [2]: > 30%

Compound: NC[C@@H]1CNC[C@H](n2cnc3c(=O)[nH]c(N)nc32)O1 [Compound 9]
Residual catalytic activity of PARP1 in the presence of a 1 mM compound ([1]; autoPARylation reaction): >30%
remaining activity at 1000 µM [2]: > 30%

Compound: NC[C@@H]1CNC[C@H](n2ccc(N)nc2=O)O1 [Compound 10]
Effect (H2O2 + PARP inhibitor combo) ([5]; H2O2 30 μM + inhibitor 100 μM): 0.29
Effect (H2O2 + PARP inhibitor combo) ([5]; H2O2 30 μM + inhibitor 800 μM): 0.23
Effect (H2O2 + PARP inhibitor combo) ([5]; H2O2 50 μM + inhibitor 100 μM): 0.32
Effect (H2O2 + PARP inhibitor combo) ([5]; H2O2 50 μM + inhibitor 800 μM): 0.26
Effect (H2O2 + PARP inhibitor combo) ([5]; H2O2 90 μM + inhibitor 100 μM): 0.45
Effect (H2O2 + PARP inhibitor combo) ([5]; H2O2 90 μM + inhibitor 800 μM): 0.51
Effect (H2O2 + PARP inhibitor combo) ([5]; H2O2 150 μM + inhibitor 100 μM): 0.66
Effect (H2O2 + PARP inhibitor combo) ([5]; H2O2 150 μM + inhibitor 800 μM): 0.64
Effect (H2O2 + PARP inhibitor combo) ([5]; H2O2 250 μM + inhibitor 100 μM): 0.78
Effect (H2O2 + PARP inhibitor combo) ([5]; H2O2 250 μM + inhibitor 800 μM): 0.87
Residual catalytic activity of PARP1 in the presence of a 1 mM compound ([1]; autoPARylation reaction): >30%
remaining activity at 1000 µM [2]: > 30%

Compound: NC[C@@H]1CNC[C@H](n2ccc(=O)[nH]c2=O)O1 [Compound 11]
IC50 [1]: 420 ± 66 µM
remaining activity at 1000 µM [2]: > 30%

Compound: NC[C@@H]1CNC[C@H](n2cc(Cl)c(=O)[nH]c2=O)O1 [Compound 12, aminomethylmorpholino 5-Cl-uracil nucleoside]
Type of inhibition [6]: mixed-type inhibition
Ki [6, 10]: 79 ± 6 µM
Ki [6, 11]: 300 ± 60 µM
IC50 [1]: 45 ± 5 µM
Selectivity for PARP1 over PARP2 (IC50 comparison) ([1]; autoPARylation reaction): highly selective PARP1 inhibitor
remaining activity at 1000 µM [2]: > 30%

Compound: NC[C@@H]1CNC[C@H](n2cc(Br)c(=O)[nH]c2=O)O1 [Compound 13]
Type of inhibition [6]: mixed-type inhibition
Ki [6, 10]: 25 ± 4 µM
Ki [6, 11]: 130 ± 30 µM
Impact of HPF1 on the inhibition potency against PARP2 [7]: no impact of HPF1
IC50 [1]: 30 ± 3 µM
IC50 [2]: 250 ± 37 µM

Compound: O=C(c1cc(Cc2n[nH]c(=O)c3ccccc23)ccc1F)N1CCN(C(=O)C2CC2)CC1 [olaparib, reference compound]
Effect (H2O2 + PARP inhibitor combo) ([5]; H2O2 30 μM + inhibitor 30 μM): 0.32
Effect (H2O2 + PARP inhibitor combo) ([5]; H2O2 30 μM + inhibitor 50 μM): 0.42
Effect (H2O2 + PARP inhibitor combo) ([5]; H2O2 50 μM + inhibitor 30 μM): 0.51
Effect (H2O2 + PARP inhibitor combo) ([5]; H2O2 90 μM + inhibitor 30 μM): 0.6
Effect (H2O2 + PARP inhibitor combo) ([5]; H2O2 90 μM + inhibitor 50 μM): 0.7
Effect (H2O2 + PARP inhibitor combo) ([5]; H2O2 150 μM + inhibitor 30 μM): 0.85
Effect (H2O2 + PARP inhibitor combo) ([5]; H2O2 150 μM + inhibitor 50 μM): 0.9
Effect (H2O2 + PARP inhibitor combo) ([5]; H2O2 250 μM + inhibitor 30 μM): 0.96
Effect (H2O2 + PARP inhibitor combo) ([5]; H2O2 250 μM + inhibitor 50 μM): 0.98
Effect on the cytotoxicity of hydrogen peroxide ([5]; Hela cells, MTT test, H2O2 30 to 250 μM): enhanced the cytotoxic effects of hydrogen peroxide

Compound: Cc1cn([C@@H]2O[C@H](CO)[C@@H](O)[C@H]2O)c(=O)[nH]c1=O [rThd]
IC50 [3]: 277 µM
IC50 [4]: 374 µM

Compound: FAM gap-DNA (32-mer duplex, 1-nt gap)
binding signal (fold increase of EC50 vs no inhibitor) [8]: 1.8
binding signal (fold increase of EC50 vs no inhibitor) [9]: 1.6

Source: PMC11640836, “Aminomethylmorpholino Nucleosides as Novel Inhibitors of PARP1 and PARP2: Experimental and Molecular Modeling Analyses of Their Selectivity and Mechanism of Action” (International Journal of Molecular Sciences, 2024)
